Reference: ChEMBL document CHEMBL1201862, “PubChem BioAssay data set” (2004)
Counter-ions that a name gives are not always drawn. Active and inactive are the calls of the source.

Key:
[1] = blockers of HIV-1 envelope-mediated cell-cell fusion – cherry-pick, dose response (AID 652057); type: functional, cell-based
[2] = off-target signal loss in HeLa-CEM21 co-culture – HeLa F-luc CTL cells, cherry-picked, counter-screen for HIV-1 Env fusion inhibitor project, dose response (AID 652040); type: functional, cell-based;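 note: potency for signal decrease marking cytotoxic or nonspecific inhibition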
[3] = HIV-1 AD8 envelope cell-cell fusion blockers – cherry-pick, dose response (AID 652062); type: functional, cell-based;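 note: luciferase signal from cell-cell fusion driven by HIV-1 clade B AD8 Env; potency is for inhibitors of fusion seen as a drop in luminescence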
[4] = blockers of HIV-1 ZM109 envelope-driven cell-cell fusion – HeLa effector, CEM target cells, luciferase, cherry-pick, dose response (AID 652058); type: functional, cell-based;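 note: luciferase signal from HIV-1 Env mediated cell-cell fusion of effector and target cells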
[5] = molecular target: T1, High affinity choline transporter 1 (Homo sapiens, UniProt Q9GZV3); assay: human choline transporter blockers, potency – cell-based, 5-point CRC, membrane potential dye, dose response (AID 504840); type: functional
T1 sequence (Q9GZV3 whole entry): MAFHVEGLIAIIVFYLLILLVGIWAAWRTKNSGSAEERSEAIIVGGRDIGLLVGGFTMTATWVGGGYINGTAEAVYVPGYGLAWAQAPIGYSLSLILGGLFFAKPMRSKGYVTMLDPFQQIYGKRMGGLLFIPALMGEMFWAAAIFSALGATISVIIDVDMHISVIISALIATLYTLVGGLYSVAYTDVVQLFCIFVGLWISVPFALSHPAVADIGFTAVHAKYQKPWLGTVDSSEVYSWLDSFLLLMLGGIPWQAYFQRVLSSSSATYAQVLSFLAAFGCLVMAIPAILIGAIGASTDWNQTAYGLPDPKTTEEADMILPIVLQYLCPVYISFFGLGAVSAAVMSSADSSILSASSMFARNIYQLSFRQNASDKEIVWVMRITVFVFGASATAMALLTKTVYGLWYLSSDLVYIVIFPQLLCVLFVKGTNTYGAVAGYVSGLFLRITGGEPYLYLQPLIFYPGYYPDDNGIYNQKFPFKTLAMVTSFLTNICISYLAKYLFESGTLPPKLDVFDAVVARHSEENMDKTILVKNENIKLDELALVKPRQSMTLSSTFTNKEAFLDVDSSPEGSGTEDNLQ

[6] = molecular target: Prothrombin (Homo sapiens, UniProt P00734); assay: Thrombin 1536 HTS Dose Response Confirmation. [Related pubchem assays: 1046 (Thrombin 1536 HTS; hits were confirmed in this assay)]; type: functional
[7] = molecular target: T2, Streptokinase A (Streptococcus pyogenes serotype M1, UniProt P10520); assay: viability-normalized secreted streptokinase activity reduction – plasminogen activation absorbance, OD405, dose response (AID 1914); type: functional, Streptococcus pyogenes M1 GAS;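 note: secreted streptokinase activity via plasminogen activation per viability signal from cell pellet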
T2 sequence (P10520 whole entry): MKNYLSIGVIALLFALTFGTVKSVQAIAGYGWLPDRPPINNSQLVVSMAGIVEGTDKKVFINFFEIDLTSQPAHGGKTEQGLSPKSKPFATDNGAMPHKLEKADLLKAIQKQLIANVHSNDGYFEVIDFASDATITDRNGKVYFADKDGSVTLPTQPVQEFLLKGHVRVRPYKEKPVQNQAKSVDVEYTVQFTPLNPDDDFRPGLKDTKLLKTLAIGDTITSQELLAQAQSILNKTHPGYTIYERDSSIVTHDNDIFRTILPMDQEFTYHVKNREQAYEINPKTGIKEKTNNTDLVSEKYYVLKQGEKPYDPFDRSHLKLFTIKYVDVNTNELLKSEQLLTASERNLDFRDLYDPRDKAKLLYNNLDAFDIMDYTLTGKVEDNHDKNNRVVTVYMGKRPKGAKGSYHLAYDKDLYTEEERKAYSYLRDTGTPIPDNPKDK

[8] = test system: Streptococcus; assay: GAS UMAA2166 growth inhibition – luminescence, BacTiterGlo, counter-screen for streptokinase expression inhibitor project, dose response (AID 1915); type: functional, organism-based;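 note: potency for reduction of bacterial viability or growth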
[9] = molecular target: Peroxisome proliferator-activated receptor gamma/Nuclear receptor coactivator 1 (Homo sapiens, UniProt P37231); type: functional;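 note: agonist potency as compounds enhance coactivator SRC-1 recruitment to PPARgamma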
Peroxisome proliferator-activated receptor gamma/Nuclear receptor coactivator 1, sequence (P37231 whole entry): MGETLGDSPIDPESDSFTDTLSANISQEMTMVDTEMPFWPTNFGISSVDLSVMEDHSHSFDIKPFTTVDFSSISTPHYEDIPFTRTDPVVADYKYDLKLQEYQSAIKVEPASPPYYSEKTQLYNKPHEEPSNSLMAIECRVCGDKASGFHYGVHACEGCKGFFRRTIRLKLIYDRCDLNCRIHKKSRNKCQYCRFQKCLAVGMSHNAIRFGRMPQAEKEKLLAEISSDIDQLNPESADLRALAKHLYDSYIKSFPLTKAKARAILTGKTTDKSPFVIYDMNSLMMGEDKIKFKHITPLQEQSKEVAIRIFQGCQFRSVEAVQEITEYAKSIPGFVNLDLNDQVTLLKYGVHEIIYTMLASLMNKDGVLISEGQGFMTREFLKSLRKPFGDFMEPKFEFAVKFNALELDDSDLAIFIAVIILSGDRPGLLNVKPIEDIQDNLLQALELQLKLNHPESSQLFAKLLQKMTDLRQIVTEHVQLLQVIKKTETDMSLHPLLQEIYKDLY
Peroxisome proliferator-activated receptor gamma/Nuclear receptor coactivator 1, sequence (Q15788 whole entry, further chain): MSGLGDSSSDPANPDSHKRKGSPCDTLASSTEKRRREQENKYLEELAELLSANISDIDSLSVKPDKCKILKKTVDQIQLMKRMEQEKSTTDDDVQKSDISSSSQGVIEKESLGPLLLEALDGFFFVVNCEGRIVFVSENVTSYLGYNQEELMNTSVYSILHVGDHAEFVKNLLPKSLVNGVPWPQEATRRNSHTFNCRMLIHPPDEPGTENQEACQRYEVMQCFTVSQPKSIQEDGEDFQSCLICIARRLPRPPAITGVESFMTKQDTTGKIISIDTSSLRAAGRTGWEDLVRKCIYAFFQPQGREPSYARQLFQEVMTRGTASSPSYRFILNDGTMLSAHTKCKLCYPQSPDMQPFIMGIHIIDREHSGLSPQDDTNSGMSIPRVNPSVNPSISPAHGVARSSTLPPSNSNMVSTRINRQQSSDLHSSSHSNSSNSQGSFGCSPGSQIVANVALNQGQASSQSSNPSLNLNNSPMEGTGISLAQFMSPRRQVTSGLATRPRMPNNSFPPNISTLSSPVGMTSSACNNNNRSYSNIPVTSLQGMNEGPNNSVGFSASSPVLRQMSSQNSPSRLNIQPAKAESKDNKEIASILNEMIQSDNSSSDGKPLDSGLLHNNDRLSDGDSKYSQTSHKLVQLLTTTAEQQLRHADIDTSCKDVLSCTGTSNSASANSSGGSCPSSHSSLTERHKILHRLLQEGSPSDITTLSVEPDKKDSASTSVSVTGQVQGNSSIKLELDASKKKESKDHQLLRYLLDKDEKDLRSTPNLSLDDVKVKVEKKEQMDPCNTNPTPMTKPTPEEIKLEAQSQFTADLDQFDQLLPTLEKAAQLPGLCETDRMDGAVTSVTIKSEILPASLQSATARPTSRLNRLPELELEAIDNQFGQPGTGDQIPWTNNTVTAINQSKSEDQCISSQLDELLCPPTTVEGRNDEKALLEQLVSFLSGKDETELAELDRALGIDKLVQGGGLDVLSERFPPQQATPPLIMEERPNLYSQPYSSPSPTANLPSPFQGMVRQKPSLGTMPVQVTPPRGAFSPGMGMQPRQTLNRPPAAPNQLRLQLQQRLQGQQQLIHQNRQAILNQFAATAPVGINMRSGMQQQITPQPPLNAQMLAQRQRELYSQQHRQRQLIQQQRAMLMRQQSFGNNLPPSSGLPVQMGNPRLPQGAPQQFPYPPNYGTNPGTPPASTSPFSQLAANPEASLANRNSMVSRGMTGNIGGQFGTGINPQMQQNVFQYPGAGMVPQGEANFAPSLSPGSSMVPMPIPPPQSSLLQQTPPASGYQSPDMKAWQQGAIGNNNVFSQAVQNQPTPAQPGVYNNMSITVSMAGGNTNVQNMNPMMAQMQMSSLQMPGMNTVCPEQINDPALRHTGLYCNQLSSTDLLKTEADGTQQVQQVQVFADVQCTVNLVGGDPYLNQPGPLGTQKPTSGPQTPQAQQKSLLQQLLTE

[10] = molecular target: Peroxisome proliferator-activated receptor gamma/Nuclear receptor coactivator 3 (Homo sapiens, UniProt P37231); type: functional;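 note: agonist potency for raising coactivator recruitment to the receptor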
[11] = molecular target: Peroxisome proliferator-activated receptor gamma/Nuclear receptor coactivator 2 (Homo sapiens, UniProt P37231); type: functional;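 note: agonist potency for raising coactivator recruitment to the receptor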
Peroxisome proliferator-activated receptor gamma/Nuclear receptor coactivator 2, sequence (P37231 whole entry): as the sequence (P37231 whole entry) above
Peroxisome proliferator-activated receptor gamma/Nuclear receptor coactivator 2, sequence (Q15596 whole entry, further chain): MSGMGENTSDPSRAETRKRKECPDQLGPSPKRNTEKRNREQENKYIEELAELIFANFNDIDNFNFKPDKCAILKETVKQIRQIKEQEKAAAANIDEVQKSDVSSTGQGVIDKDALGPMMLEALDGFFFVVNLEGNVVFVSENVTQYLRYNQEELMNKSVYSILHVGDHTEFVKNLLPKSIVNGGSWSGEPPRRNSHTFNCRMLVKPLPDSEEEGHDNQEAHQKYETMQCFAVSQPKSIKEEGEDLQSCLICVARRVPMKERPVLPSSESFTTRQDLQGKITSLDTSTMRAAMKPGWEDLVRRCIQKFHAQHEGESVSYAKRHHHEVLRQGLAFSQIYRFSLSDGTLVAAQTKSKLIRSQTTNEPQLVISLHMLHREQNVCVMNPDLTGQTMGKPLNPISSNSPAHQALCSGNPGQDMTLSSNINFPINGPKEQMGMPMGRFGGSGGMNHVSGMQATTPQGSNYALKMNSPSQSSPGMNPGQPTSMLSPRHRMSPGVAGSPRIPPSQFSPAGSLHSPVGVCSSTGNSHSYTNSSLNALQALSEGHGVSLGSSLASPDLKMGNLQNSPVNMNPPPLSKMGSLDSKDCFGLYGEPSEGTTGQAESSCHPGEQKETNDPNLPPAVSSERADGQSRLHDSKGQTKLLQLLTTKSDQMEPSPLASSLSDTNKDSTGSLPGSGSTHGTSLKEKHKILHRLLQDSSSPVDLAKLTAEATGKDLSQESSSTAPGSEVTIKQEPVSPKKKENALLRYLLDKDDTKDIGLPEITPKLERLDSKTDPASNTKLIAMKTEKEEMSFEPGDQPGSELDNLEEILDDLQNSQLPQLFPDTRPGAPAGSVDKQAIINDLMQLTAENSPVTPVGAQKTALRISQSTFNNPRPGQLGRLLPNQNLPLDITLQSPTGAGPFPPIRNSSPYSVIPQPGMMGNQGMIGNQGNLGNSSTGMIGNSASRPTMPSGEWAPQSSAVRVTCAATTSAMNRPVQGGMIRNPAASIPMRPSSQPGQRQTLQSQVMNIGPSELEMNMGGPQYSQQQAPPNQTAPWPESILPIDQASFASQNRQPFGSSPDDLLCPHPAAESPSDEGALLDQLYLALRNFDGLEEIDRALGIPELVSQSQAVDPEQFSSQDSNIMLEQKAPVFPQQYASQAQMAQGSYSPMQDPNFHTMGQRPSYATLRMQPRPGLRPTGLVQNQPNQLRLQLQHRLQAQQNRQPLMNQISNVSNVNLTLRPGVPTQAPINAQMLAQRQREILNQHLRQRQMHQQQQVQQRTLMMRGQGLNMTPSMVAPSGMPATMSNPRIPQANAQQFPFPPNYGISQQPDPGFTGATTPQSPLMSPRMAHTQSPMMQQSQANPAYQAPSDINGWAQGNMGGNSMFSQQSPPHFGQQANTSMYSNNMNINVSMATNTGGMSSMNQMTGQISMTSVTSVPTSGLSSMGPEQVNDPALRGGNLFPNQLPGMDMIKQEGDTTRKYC

[12] = molecular target: Cytochrome P450 3A4 (Homo sapiens, UniProt P08684);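 note: CYP3A4 tested as one member of a cytochrome P450 panel screen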
Cytochrome P450 3A4, sequence (P08684 whole entry): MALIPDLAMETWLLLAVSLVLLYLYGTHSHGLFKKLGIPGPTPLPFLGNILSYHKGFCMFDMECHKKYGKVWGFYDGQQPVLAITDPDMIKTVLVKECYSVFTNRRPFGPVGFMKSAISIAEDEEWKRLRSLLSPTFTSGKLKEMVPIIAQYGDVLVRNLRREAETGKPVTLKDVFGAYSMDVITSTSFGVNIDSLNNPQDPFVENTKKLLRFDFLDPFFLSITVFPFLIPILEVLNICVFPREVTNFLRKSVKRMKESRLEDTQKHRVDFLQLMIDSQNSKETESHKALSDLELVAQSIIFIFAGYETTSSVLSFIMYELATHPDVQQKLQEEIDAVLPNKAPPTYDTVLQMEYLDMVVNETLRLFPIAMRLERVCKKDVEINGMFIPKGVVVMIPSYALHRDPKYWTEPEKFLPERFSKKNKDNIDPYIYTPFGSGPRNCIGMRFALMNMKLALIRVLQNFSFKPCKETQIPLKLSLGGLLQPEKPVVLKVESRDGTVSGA

[13] = molecular target: Cytochrome P450 2C9 (Homo sapiens, UniProt P11712)
[14] = molecular target: T3, Ubiquitin-conjugating enzyme E2 N (Homo sapiens, UniProt P61088); type: functional;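 note: Dose-response confirmation in a TR-FRET assay detecting UBC13-driven polyubiquitin chain formation, inhibition measured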
T3 sequence (P61088 whole entry): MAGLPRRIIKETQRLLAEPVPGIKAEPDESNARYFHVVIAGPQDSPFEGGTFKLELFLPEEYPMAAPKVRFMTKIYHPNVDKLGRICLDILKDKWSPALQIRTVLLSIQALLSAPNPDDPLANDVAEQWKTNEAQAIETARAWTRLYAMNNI

[15] = molecular target: Nonstructural protein 1 (Influenza A virus, UniProt Q194T2); type: functional, Influenza A virus (A/California/07/2009(H1N1))
Nonstructural protein 1, sequence (Q194T2 whole entry): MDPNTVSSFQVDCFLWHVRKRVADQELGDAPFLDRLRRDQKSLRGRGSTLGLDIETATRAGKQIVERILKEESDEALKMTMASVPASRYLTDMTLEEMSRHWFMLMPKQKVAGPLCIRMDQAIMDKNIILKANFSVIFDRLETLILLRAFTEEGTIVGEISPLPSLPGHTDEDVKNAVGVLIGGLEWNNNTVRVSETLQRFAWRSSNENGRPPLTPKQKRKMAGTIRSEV

[16] = molecular target: Cytochrome P450 2D6 (Homo sapiens, UniProt P10635);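 note: CYP2D6 member of a cytochrome P450 panel assay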
[17] = blockade of melanocortin 4 receptor signaling – cell-based, plate reader, cherry pick, counter-screen for LGR2 antagonist project, dose response (AID 743444); type: functional;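 note: transfected HEK 293 cells stimulated with alpha-MSH peptide; potency of inhibitors of the alpha-MSH evoked signal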
[18] = blockers of bursicon-stimulated LGR2 cAMP reporter – cell-based, HEK293, CRE-luciferase reporter, cherry pick, set 2, dose response (AID 743343); type: functional;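 note: transfected cells were stimulated with diluted bursicon conditioned medium after compound addition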
[19] = microbe, parasite or virus in culture; type: functional; conditions: Mycobacterium tuberculosis
[20] = molecular target: Heat shock protein HSP 90-alpha (Homo sapiens, UniProt P07900); type: functional, organism-based
[21] = Luminescence Cell-Based Dose Retest to Confirm Inhibitors of Cancer Stem Cells. [Related pubchem assays (depositor defined):AID2717, AID2721]; type: functional; conditions: Homo sapiens
[22] = molecular target: T4, Cytochrome P450 1A2 (Homo sapiens, UniProt P05177);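 note: PubChem cytochrome P450 panel assay, CYP1A2 panel member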
T4 sequence (P05177 whole entry): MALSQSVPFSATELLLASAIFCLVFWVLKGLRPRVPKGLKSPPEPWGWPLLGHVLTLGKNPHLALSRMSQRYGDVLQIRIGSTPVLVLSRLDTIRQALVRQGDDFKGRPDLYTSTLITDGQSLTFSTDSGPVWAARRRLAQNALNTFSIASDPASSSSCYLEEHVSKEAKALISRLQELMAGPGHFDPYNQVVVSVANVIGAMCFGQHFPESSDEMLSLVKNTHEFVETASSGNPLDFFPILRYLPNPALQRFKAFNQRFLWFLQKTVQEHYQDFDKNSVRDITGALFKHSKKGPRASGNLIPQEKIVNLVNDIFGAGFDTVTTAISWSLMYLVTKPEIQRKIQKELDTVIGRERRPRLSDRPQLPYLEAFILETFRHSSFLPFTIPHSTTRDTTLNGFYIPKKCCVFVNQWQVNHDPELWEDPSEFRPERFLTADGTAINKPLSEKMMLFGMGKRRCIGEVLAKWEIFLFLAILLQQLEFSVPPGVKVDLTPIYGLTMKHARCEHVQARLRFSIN

[23] = molecular target: T5, Corticotropin-releasing factor receptor 2/Corticotropin-releasing factor-binding protein (Homo sapiens, UniProt P24387+Q13324); assay: activators of CRF receptor 2 with binding protein – uHTS hits, confirmation (AID 602473); type: functional; conditions: read-out: EC50_Mean
T5 sequence (Q13324 whole entry): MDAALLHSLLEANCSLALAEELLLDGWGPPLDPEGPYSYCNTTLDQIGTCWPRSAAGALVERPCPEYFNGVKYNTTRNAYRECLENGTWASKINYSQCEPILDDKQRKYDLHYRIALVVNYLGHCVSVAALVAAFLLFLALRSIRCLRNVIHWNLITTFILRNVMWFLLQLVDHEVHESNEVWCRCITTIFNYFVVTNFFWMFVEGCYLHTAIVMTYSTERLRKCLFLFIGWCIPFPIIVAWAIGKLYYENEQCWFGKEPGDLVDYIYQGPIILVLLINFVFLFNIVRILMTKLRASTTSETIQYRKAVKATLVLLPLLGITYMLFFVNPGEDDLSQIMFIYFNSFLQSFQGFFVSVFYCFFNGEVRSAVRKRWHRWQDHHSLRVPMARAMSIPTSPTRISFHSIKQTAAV
T5 sequence (P24387 whole entry): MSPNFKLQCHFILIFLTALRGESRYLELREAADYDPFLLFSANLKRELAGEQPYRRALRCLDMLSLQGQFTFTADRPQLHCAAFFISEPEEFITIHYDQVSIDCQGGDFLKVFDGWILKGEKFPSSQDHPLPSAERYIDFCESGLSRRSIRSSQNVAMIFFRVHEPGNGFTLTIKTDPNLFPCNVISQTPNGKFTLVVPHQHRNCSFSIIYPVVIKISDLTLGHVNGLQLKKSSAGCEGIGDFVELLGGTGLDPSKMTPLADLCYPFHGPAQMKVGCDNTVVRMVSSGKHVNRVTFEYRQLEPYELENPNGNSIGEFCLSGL

[24] = molecular target: Large T antigen (Simian virus 40, UniProt P03070); type: functional, Betapolyomavirus macacae;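 note: Confirmatory-stage PubChem screen for compounds that inhibit SV40 T antigen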
[25] = molecular target: T5, Corticotropin-releasing factor receptor 2/Corticotropin-releasing factor-binding protein; assay: Dose Response confirmation of uHTS hits for small molecule antagonists of the CRF-binding protein and CRF-R2 receptor complex.; type: functional; conditions: read-out: IC50_Mean

CCN(CC(=O)Nc1cc(Cl)ccc1C)C(=O)c1ccc(=O)n(Cc2ccccc2)n1
AC50 [1]: 4.27 µM (active) | AC50 [2]: 5.05 µM (active) | AC50 [3]: 9.4 µM (active) | AC50 [4]: 3.23 µM (active)

Cc1ccc(C(=O)NCC(=O)NCCCc2ccccc2)cc1
IC50 [5]: 16.6 µM (active)

CCOC(=O)c1c(-c2ccc(C)cc2)csc1NC(=O)CCN1CCOCC1
IC50 [6]: > 50 µM (not active) | EC50 [7]: 65.4 µM (active) | EC50 [8]: > 150 µM (not active)

Cc1cccc2cc(CN(Cc3ccc4c(c3)OCO4)Cc3nnnn3C3CCCC3)c(=O)[nH]c12
EC50 [9]: > 79.4 µM (not active) | EC50 [10]: > 79.4 µM (not active) | EC50 [11]: > 79.4 µM (not active)

C[C@@]12CC[C@@H]3[C@H](CCC4=CC(=O)CC[C@]43C)[C@@H]1CC[C@@H]2C(=O)Cn1cnc2c(S)ncnc21
AC50 [12]: inconclusive

O=C(Nc1cnccn1)c1cccc(C(F)(F)F)c1
EC50 [9]: > 79.4 µM (not active) | EC50 [10]: > 79.4 µM (not active) | EC50 [11]: > 79.4 µM (not active)

CC(NC(=O)c1cc(S(=O)(=O)N(C)C)ccc1N1CCCC1)C1CC2CCC1C2 (centres undefined)
AC50 [1]: 2.74 µM (active) | AC50 [2]: 4.89 µM (active) | AC50 [3]: 7.68 µM (active) | AC50 [4]: 4.03 µM (active)

CCOc1ccc(OCC)c(NC(=O)C2CCCN(S(=O)(=O)c3c[nH]cn3)C2)c1 (centres undefined)
IC50 [6]: > 50 µM (not active)

Cc1nonc1NC(=O)CSc1ccc(-c2ccccc2)nn1
IC50 [5]: 14.5 µM (active)

Cc1ccc(NCC(O)C(O)C(O)CO)c(N=Nc2ccccc2)c1C (centres undefined)
IC50 [6]: > 50 µM (not active)

CC(=O)OCC(=O)[C@]12OC(C)(C)O[C@@H]1C[C@H]1[C@H]3CC=C4C[C@@H](O)CC[C@]4(C)[C@H]3CC[C@]12C
AC50 [13]: 7.94 µM (inconclusive) | AC50 [12]: inconclusive

CCN=C(S)NNC(=O)c1ccccn1
IC50 [14]: > 20 µM (inactive) | IC50 [15]: 1.55 µM (active)

Cc1ccc(-n2c(C)nc3c(cnn3-c3ccc(F)cc3)c2=O)cc1C
AC50 [13]: 15.8 µM (inconclusive) | AC50 [16]: 15.8 µM (inconclusive) | AC50 [12]: inconclusive

CC(C)NC(=O)N1CCC2(CC1)CCN(C(=O)c1cccc(F)c1)CC2
AC50 [12]: inconclusive

COC(=O)c1nnc(NC(=O)c2ccc(Br)cc2)[nH]1
IC50 [6]: 0.0137 µM (active)

COc1cccc(-c2cc(C(=O)N3CCCCCC3)no2)c1
AC50 [17]: 16.7 µM (active) | AC50 [18]: 10.3 µM (active)

CN1CC(c2ccccc2)C2(COc3ccccc3C2=O)C12C(=O)Nc1ccccc12 (centres undefined)
AC50 [1]: 2.66 µM (active) | AC50 [2]: 4.14 µM (active) | AC50 [16]: 20 µM (inconclusive) | AC50 [3]: 5.51 µM (active) | AC50 [4]: 3.46 µM (active)

CC(=O)CCc1ccc(OC(=O)c2cccnc2)cc1
EC50 [9]: > 79.4 µM (not active) | EC50 [10]: > 79.4 µM (not active) | EC50 [11]: > 79.4 µM (not active)

COc1ccc(C(=O)Nc2cc(C)c3c(=O)oc4ccccc4c3n2)cc1
EC50 [9]: > 79.4 µM (not active) | EC50 [10]: > 79.4 µM (not active) | EC50 [11]: 82.8 µM (not active)

CCCCN(CCCC)CCC(O)c1cc2c(Cl)cc(Cl)cc2c2cc(C(F)(F)F)ccc12 (centres undefined) [HALOFANTRINE HYDROCHLORIDE]
CC50 [19]: > 40 µM (active) | AC50 [20]: 7.27 µM (active) | IC50 [14]: > 20 µM (inactive) | AC50 [21]: 6.51 µM (active) | AC50 [22]: 20 µM (inconclusive)

C=CCc1ccc(O)c(-c2ccc(O)c(CC=C)c2)c1 [HONOKIOL]
IC50 [5]: 12 µM (active)

CC1(C)C(/C=C/C=C/C=C/C=C2\N(CCCCS(=O)(=O)O)c3ccc4ccccc4c3C2(C)C)=[N+](CCCCS(=O)(=O)[O-])c2ccc3ccccc3c21 [INDOCYANINE GREEN]
EC50 [23]: > 53 µM (inactive) | IC50 [15]: 2.7 µM (active) | IC50 [24]: 2.1 µM (active) | IC50 [25]: > 47.1 µM (inactive)
